Assay results from patent US20240109917A1 (ACTELION PHARMACEUTICALS LTD, priority 2020, published 2024).
Read-outs that look alike come from different tables or passages of the source.

How the values were obtained:
[1] = target: Tb-labeled inactive PDGFRβ (Homo sapiens (Human), UniProt P09619); test: PDGFRβ LanthaScreen Assay; format: binding; settings: read-out: PDGFR Lantha IC50
PDGFRβ = PDGFRβ (Rattus norvegicus (Rat), UniProt Q05030); test: PDGFRβ Cellular Assay (PDGFRb P-Y751 HTRF in A10 cells stimulated with PDGF-BB); format: cell-based
Outline: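 Phospho-Y751 PDGFRβ was measured by HTRF in lysates of A10 rat cells. Cells received compound for 3 hours before PDGF-BB stimulation (100 ng/mL working stock).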

VEGFR2, unphosphorylated = VEGFR2, unphosphorylated (Homo sapiens (Human), UniProt P35968); test: VEGFR ADP GLO Assay; format: biochemical
Sequence of VEGFR2, unphosphorylated (P35968 20-1356): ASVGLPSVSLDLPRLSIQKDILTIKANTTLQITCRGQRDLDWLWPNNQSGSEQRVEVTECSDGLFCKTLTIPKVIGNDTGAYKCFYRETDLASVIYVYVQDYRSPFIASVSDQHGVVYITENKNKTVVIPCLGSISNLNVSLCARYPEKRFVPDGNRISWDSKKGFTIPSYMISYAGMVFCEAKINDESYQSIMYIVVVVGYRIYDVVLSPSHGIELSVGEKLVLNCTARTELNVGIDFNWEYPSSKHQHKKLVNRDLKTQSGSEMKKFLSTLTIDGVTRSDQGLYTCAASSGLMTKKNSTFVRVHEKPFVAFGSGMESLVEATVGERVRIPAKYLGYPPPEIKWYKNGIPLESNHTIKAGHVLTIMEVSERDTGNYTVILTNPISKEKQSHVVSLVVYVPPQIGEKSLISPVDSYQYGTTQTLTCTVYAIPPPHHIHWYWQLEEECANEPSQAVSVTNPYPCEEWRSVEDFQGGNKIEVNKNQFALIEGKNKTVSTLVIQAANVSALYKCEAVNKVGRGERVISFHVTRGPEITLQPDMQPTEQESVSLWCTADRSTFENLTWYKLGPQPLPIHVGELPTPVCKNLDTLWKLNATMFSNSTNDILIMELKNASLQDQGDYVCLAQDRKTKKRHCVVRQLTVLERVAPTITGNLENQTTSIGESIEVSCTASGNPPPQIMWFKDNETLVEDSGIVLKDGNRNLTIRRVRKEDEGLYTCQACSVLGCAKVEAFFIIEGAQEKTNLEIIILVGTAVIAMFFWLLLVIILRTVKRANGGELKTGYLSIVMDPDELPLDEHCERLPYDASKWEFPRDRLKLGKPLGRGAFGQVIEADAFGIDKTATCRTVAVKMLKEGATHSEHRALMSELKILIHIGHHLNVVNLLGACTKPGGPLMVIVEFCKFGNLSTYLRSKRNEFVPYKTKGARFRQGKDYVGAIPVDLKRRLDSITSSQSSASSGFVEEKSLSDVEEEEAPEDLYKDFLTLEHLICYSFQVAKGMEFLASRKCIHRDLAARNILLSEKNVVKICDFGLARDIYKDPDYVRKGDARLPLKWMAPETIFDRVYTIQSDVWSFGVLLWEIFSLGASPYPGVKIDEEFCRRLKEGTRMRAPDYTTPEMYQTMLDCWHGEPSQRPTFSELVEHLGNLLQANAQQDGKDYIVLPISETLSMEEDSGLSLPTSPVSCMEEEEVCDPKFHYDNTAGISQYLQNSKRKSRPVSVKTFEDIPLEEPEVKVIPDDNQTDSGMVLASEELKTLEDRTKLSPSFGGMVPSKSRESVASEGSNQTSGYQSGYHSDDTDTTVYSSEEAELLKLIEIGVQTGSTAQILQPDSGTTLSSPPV

Sequence of Tb-labeled inactive PDGFRβ (P09619 33-1106): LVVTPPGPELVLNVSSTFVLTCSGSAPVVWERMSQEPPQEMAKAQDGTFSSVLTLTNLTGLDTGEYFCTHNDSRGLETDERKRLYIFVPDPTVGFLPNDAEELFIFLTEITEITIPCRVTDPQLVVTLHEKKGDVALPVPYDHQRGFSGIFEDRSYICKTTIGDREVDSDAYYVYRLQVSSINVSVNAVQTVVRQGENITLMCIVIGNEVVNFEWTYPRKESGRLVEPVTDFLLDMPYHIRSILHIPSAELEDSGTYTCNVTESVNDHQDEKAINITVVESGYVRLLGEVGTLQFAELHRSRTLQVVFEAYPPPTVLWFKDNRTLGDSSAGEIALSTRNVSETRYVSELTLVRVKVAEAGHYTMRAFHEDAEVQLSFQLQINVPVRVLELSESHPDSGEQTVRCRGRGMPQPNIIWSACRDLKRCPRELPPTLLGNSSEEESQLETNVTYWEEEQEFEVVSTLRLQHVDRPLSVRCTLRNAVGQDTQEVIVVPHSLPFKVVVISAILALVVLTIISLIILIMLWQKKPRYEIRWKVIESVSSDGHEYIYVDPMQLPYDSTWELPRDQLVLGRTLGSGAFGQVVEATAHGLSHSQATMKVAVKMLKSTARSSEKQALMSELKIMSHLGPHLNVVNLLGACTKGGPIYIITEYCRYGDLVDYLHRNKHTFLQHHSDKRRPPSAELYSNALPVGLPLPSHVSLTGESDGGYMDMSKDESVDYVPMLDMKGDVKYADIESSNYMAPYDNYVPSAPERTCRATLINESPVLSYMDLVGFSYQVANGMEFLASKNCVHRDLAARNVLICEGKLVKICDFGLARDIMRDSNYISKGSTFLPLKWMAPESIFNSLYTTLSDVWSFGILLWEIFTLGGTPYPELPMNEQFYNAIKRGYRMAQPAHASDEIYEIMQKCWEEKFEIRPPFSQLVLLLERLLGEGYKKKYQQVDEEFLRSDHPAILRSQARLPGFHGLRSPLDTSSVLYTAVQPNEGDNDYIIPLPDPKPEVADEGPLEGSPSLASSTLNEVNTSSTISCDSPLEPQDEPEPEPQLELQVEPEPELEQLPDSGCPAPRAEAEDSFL
Sequence of PDGFRβ (Q05030 32-1097): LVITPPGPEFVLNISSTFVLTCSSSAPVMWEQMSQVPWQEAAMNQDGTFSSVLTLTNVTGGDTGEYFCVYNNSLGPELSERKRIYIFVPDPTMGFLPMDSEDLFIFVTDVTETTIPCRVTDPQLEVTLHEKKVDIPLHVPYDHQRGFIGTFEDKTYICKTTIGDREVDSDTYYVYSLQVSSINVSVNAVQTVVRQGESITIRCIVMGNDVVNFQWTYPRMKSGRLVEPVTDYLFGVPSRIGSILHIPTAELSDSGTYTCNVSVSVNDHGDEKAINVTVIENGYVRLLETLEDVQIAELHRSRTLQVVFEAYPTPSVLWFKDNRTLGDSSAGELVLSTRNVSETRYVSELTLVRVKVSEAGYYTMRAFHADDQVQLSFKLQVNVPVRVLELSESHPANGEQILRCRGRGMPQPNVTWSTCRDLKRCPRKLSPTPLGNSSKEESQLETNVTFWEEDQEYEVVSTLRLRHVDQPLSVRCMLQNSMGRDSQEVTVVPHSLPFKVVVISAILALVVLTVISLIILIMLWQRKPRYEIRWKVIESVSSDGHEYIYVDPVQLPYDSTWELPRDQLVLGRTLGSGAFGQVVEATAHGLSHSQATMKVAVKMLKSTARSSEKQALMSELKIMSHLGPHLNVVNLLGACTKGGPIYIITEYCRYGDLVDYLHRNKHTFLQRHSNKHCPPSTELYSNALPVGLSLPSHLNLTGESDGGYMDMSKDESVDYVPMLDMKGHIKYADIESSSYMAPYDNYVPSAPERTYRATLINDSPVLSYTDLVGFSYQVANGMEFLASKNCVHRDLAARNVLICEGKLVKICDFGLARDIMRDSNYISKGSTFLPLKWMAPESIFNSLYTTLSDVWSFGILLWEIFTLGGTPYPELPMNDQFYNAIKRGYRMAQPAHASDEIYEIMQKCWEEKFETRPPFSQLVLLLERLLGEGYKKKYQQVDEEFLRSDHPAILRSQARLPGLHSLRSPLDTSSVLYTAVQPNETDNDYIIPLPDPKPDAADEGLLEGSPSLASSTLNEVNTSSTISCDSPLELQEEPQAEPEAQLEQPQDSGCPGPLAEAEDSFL

COCCn1cc(-c2cn3ncc(C(=O)Nc4cc(NC(=O)CCN5CCC6(CC6)C5)cnc4C)c3s2)cn1 [Example 91, N-(5-(3-(5-azaspiro[2.4]heptan-5-yl)propanamido)-2-methylpyridin-3-yl)-2-(1-(2-methoxyethyl)-1H-pyrazol-4-yl)pyrazolo[5,1-b]thiazole-7-carboxamide]
IC50 [1]: 13.2 nM
IC50 (PDGFRβ; read-out: PDGFR Cellular IC50): 36.4 nM
IC50 (VEGFR2, unphosphorylated): > 7500 nM

COCCn1cc(-c2cn3ncc(C(=O)Nc4cc(NC(=O)C(C)(C)CN5CCCC5(C)C)cnc4C)c3s2)cn1 [Example 488, N-(5-(3-(2,2-dimethylpyrrolidin-1-yl)-2,2-dimethyl-propanamido)-2-methylpyridin-3-yl)-2-(1-(2-methoxyethyl)-1H-pyrazol-4-yl)pyrazolo[5,1-b]thiazole-7-carboxamide]
IC50 [1]: 1280 nM
IC50 (PDGFRβ; read-out: PDGFR Cellular IC50): 375 nM
IC50 (VEGFR2, unphosphorylated): > 7500 nM

CC[C@H]1CN(CC(=O)Nc2cnc(C)c(NC(=O)c3cnn4cc(-c5cnn(C)c5)sc34)c2)CCO1 [Example 66, (S)—N-(5-(2-(2-ethylmorpholino)acetamido)-2-methylpyridin-3-yl)-2-(1-methyl-1H-pyrazol-4-yl)pyrazolo[5,1-b]thiazole-7-carboxamide]
IC50 [1]: 2.6 nM
IC50 (PDGFRβ; read-out: PDGFR Cellular IC50): 4.6 nM
IC50 (VEGFR2, unphosphorylated): > 7500 nM

Cc1ncc(NC(=O)CN2CCS(=O)(=O)CC2)cc1NC(=O)c1cnn2cc(-c3cnn(C)c3)sc12 [Example 59, N-(5-(2-(1,1-dioxidothiomorpholino)acetamido)-2-methylpyridin-3-yl)-2-(1-methyl-1H-pyrazol-4-yl)pyrazolo[5,1-b]thiazole-7-carboxamide]
IC50 [1]: 93.9 nM
IC50 (PDGFRβ; read-out: PDGFR Cellular IC50): > 3000 nM
IC50 (VEGFR2, unphosphorylated): > 7500 nM

COCCn1cc(-c2cn3ncc(C(=O)Nc4cc(NC(=O)CCN5CCC(C)(C)C5)cnc4C)c3s2)cn1 [Example 89, N-(5-(3-(3,3-dimethylpyrrolidin-1-yl)propanamido)-2-methylpyridin-3-yl)-2-(1-(2-methoxyethyl)-1H-pyrazol-4-yl)pyrazolo[5,1-b]thiazole-7-carboxamide]
IC50 [1]: 12.7 nM
IC50 (PDGFRβ; read-out: PDGFR Cellular IC50): 26.2 nM
IC50 (VEGFR2, unphosphorylated): > 7500 nM

COCCn1cc(-c2cn3ncc(C(=O)Nc4cc(NC(=O)C[C@H]5CCN(C(C)C)C5)cnc4C)c3s2)cn1 [Example 486, (R)—N-(5-(2-(1-isopropylpyrrolidin-3-yl)acetamido)-2-methylpyridin-3-yl)-2-(1-(2-methoxyethyl)-1H-pyrazol-4-yl)pyrazolo[5,1-b]thiazole-7-carboxamide]
IC50 [1]: 127 nM
IC50 (PDGFRβ; read-out: PDGFR Cellular IC50): 2000 nM
IC50 (VEGFR2, unphosphorylated): > 7500 nM

Cc1ncc(NC(=O)CN2CCC3(CC2)COC3)cc1NC(=O)c1cnn2cc(-c3cnn(C)c3)sc12 [Example 46, N-(5-(2-(2-oxa-7-azaspiro[3.5]nonan-7-yl)acetamido)-2-methylpyridin-3-yl)-2-(1-methyl-1H-pyrazol-4-yl)pyrazolo[5,1-b]thiazole-7-carboxamide]
IC50 [1]: 89 nM
IC50 (PDGFRβ; read-out: PDGFR Cellular IC50): 85.5 nM
IC50 (VEGFR2, unphosphorylated): > 7500 nM

Cc1ncc(NC(=O)CN2CCOC[C@H]2C)cc1NC(=O)c1cnn2cc(-c3cnn(C)c3)sc12 [Example 50, (R)-2-(1-methyl-1H-pyrazol-4-yl)-N-(2-methyl-5-(2-(3-methylmorpholino)acetamido)pyridin-3-yl)pyrazolo[5,1-b]thiazole-7-carboxamide]
IC50 [1]: 14 nM
IC50 (PDGFRβ; PDGFR Cellular IC50): 27.3 nM
IC50 (VEGFR2, unphosphorylated): > 7500 nM

CC[C@H]1COCCN1CC(=O)Nc1cnc(C)c(NC(=O)c2cnn3cc(-c4cnn(C)c4)sc23)c1 [Example 70, (S)—N-(5-(2-(3-ethylmorpholino)acetamido)-2-methylpyridin-3-yl)-2-(1-methyl-1H-pyrazol-4-yl)pyrazolo[5,1-b]thiazole-7-carboxamide]
IC50 [1]: 2.9 nM
IC50 (PDGFRβ; read-out: PDGFR Cellular IC50): 6.4 nM
IC50 (VEGFR2, unphosphorylated): > 7500 nM

Cc1ncc(NC(=O)CN2[C@H](C)COC[C@@H]2C)cc1NC(=O)c1cnn2cc(-c3cnn(C)c3)sc12 [Example 71, N-(5-(2-((3S,5R)-3,5-dimethylmorpholino)acetamido)-2-methylpyridin-3-yl)-2-(1-methyl-1H-pyrazol-4-yl)pyrazolo[5,1-b]thiazole-7-carboxamide]
IC50 [1]: 47.9 nM
IC50 (PDGFRβ; read-out: PDGFR Cellular IC50): 90.9 nM
IC50 (VEGFR2, unphosphorylated): > 7500 nM

Cc1ncc(NC(=O)CN2CCOCC2)cc1NC(=O)c1cnn2cc(-c3cnn(C)c3)sc12 [Example 55, 2-(1-methyl-1H-pyrazol-4-yl)-N-(2-methyl-5-(2-morpholinoacetamido)pyridin-3-yl)pyrazolo[5,1-b]thiazole-7-carboxamide]
IC50 [1]: 40.6 nM
IC50 (PDGFRβ; read-out: PDGFR Cellular IC50): 87.1 nM
IC50 (VEGFR2, unphosphorylated): > 7500 nM

Cc1ncc(NC(=O)CN2CCCC23CC3)cc1NC(=O)c1cnn2cc(-c3cnn(CCO)c3)sc12 [Example 87, N-(5-(2-(4-azaspiro[2.4]heptan-4-yl)acetamido)-2-methylpyridin-3-yl)-2-(1-(2-hydroxyethyl)-1H-pyrazol-4-yl)pyrazolo[5,1-b]thiazole-7-carboxamide]
IC50 [1]: 3.2 nM
IC50 (PDGFRβ; read-out: PDGFR Cellular IC50): 1 nM
IC50 (VEGFR2, unphosphorylated): > 7500 nM

Cc1ncc(NC(=O)CN2CCc3ncccc3C2)cc1NC(=O)c1cnn2cc(-c3cnn(C)c3)sc12 [Example 63, N-(5-(2-(7,8-dihydro-1,6-naphthyridin-6 (5H)-yl)acetamido)-2-methylpyridin-3-yl)-2-(1-methyl-1H-pyrazol-4-yl)pyrazolo[5,1-b]thiazole-7-carboxamide]
IC50 [1]: 42.9 nM
IC50 (PDGFRβ; read-out: PDGFR Cellular IC50): 223 nM
IC50 (VEGFR2, unphosphorylated): > 7500 nM

Cc1ncc(NC(=O)CNC2CCC2)cc1NC(=O)c1cnn2cc(-c3cnn4c3OCCC4)sc12 [Example 494, N-(5-(2-(cyclobutylamino)acetamido)-2-methylpyridin-3-yl)-2-(6,7-dihydro-5H-pyrazolo[5,1-b][1,3]oxazin-3-yl)pyrazolo[5,1-b]thiazole-7-carboxamide]
IC50 [1]: 3.9 nM
IC50 (PDGFRβ; read-out: PDGFR Cellular IC50): 9.6 nM
IC50 (VEGFR2, unphosphorylated): > 7500 nM

Cc1ncc(NC(=O)CN2CCCC(F)(F)C2)cc1NC(=O)c1cnn2cc(-c3cnn(C)c3)sc12 [Example 49, N-(5-(2-(3,3-difluoropiperidin-1-yl)acetamido)-2-methylpyridin-3-yl)-2-(1-methyl-1H-pyrazol-4-yl)pyrazolo[5,1-b]thiazole-7-carboxamide]
IC50 [1]: 2.1 nM
IC50 (PDGFRβ; read-out: PDGFR Cellular IC50): 4.7 nM
IC50 (VEGFR2, unphosphorylated): > 7500 nM

Cc1ncc(NC(=O)CN2CCCOCC2)cc1NC(=O)c1cnn2cc(-c3cnn(C)c3)sc12 [Example 80, N-(5-(2-(1,4-oxazepan-4-yl)acetamido)-2-methylpyridin-3-yl)-2-(1-methyl-1H-pyrazol-4-yl)pyrazolo[5,1-b]thiazole-7-carboxamide]
IC50 [1]: 19.3 nM
IC50 (PDGFRβ; read-out: PDGFR Cellular IC50): 37.8 nM
IC50 (VEGFR2, unphosphorylated): > 7500 nM

Cc1ncc(NC(=O)CN2CCc3cnccc3C2)cc1NC(=O)c1cnn2cc(-c3cnn(C)c3)sc12 [Example 62, N-(5-(2-(3,4-dihydro-2,6-naphthyridin-2 (1H)-yl)acetamido)-2-methylpyridin-3-yl)-2-(1-methyl-1H-pyrazol-4-yl)pyrazolo[5,1-b]thiazole-7-carboxamide]
IC50 [1]: 17.6 nM
IC50 (PDGFRβ; read-out: PDGFR Cellular IC50): 111 nM
IC50 (VEGFR2, unphosphorylated): > 7500 nM

Cc1ncc(NC(=O)CN2CCC3(CCO3)CC2)cc1NC(=O)c1cnn2cc(-c3cnn(C)c3)sc12 [Example 81, N-(5-(2-(1-oxa-7-azaspiro[3.5]nonan-7-yl)acetamido)-2-methylpyridin-3-yl)-2-(1-methyl-1H-pyrazol-4-yl)pyrazolo[5,1-b]thiazole-7-carboxamide]
IC50 [1]: 76.8 nM
IC50 (PDGFRβ; read-out: PDGFR Cellular IC50): 79.8 nM
IC50 (VEGFR2, unphosphorylated): > 7500 nM
